{"source": "patent US7910102B2", "about": "(priority 2006, dated 2011)", "molecules": {"B1": {"name": "PEGylated CH2-OSK1: CH2-OSK1 fusion protein mono-PEGylated with 20 kD methoxy-PEG-aldehyde (conjugate)", "chain": "MGGHHHHHHGGGPSVFLFPPKPKDTLMISRTPEVTCVVVDVSHEDPEVKFNWYVDGVEVHNAKTKPREEQYNSTYRVVSVLTVLHQDWLNGKEYKCKVSNKALPAPIEKTISGGGGSGGGGSGVIINVKCKISRQCLEPCKKAGMRFGKCMNGKCHCTPK"}, "B2": {"name": "FcLoop-L2-OsK1-L2: OsK1 inserted into the human IgG1 Fc-loop domain with Gly linkers (protein)", "chain": "MDKTHTCPPCPAPELLGGPSVFLFPPKPKDTLMISRTPEVTCVVVDVSHEDPEVKFNWYVDGVEVHNAKTKPREEQYNSTYRVVSVLTVLHQDWLNGKEYKCKVSNKALPAPIEKTISKAKGQPREPQVYTLPPSRDELGGGVIINVKCKISRQCLEPCKKAGMRFGKCMNGKCHCTPKGGTKNQVSLTCLVKGFYPSDIAVEWESNGQPENNYKTTPPVLDSDGSFFLYSKLTVDKSRWQQGNVFSCSVMHEALHNHYTQKSLSLSPGK", "modifications": "Definition of Artificial Sequence: Synthetic protein"}, "B3": {"name": "FcLoop-L4-OsK1-L4: FcLoop OSK1 toxin conjugate as named in b1013 only (protein)", "chain": "MDKTHTCPPCPAPELLGGPSVFLFPPKPKDTLMISRTPEVTCVVVDVSHEDPEVKFNWYVDGVEVHNAKTKPREEQYNSTYRVVSVLTVLHQDWLNGKEYKCKVSNKALPAPIEKTISKAKGQPREPQVYTLPPSRDELGGGGGVIINVKCKISRQCLEPCKKAGMRFGKCMNGKCHCTPKGGTKNQVSLTCLVKGFYPSDIAVEWESNGQPENNYKTTPPVLDSDGSFFLYSKLTVDKSRWQQGNVFSCSVMHEALHNHYTQKSLSLSPGK"}, "B4": {"name": "FcLoop-L2-ShK-L2: ShK inserted into the human IgG1 Fc-loop domain with Gly linkers (protein)", "chain": "MDKTHTCPPCPAPELLGGPSVFLFPPKPKDTLMISRTPEVTCVVVDVSHEDPEVKFNWYVDGVEVHNAKTKPREEQYNSTYRVVSVLTVLHQDWLNGKEYKCKVSNKALPAPIEKTISKAKGQPREPQVYTLPPSRDELGGRSCIDTIPKSRCTAFQCKHSMKYRLSFCRKTCGTCGGTKNQVSLTCLVKGFYPSDIAVEWESNGQPENNYKTTPPVLDSDGSFFLYSKLTVDKSRWQQGNVFSCSVMHEALHNHYTQKSLSLSPGK", "modifications": "Definition of Artificial Sequence: Synthetic protein"}}, "key": {"[1]": {"system": "IFN-g production in human whole blood", "format": "cell-based"}, "[2]": {"system": "IL-2 production in human whole blood", "format": "cell-based"}, "human Kv1.3 [3]": {"biological_target": "T1, human Kv1.3 (Homo sapiens, UniProt P22001)", "T1 sequence (P22001 whole entry)": "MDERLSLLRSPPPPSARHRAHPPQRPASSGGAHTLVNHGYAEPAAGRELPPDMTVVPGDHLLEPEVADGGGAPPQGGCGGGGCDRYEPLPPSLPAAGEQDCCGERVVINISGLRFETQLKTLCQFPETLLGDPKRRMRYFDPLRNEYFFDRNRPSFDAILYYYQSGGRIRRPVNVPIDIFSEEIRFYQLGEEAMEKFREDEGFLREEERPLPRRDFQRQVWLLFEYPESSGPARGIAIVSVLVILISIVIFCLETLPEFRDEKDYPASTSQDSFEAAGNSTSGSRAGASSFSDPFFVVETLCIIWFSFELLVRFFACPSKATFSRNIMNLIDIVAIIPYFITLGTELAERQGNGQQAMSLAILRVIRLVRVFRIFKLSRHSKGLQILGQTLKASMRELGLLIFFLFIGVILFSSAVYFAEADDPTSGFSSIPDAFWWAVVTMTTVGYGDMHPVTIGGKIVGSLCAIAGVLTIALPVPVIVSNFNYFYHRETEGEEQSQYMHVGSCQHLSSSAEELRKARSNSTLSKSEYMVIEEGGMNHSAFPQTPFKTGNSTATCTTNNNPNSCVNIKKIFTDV", "format": "cell-based", "set-up": "expressed in transfected cells"}, "human Kv1.3 [4]": {"biological_target": "T1, human Kv1.3", "format": "cell-based", "details": "for IC50: read-out: IC50 Sustained"}, "IL-2R on CD4+ T cells": {"system": "IL-2R on CD4+ T cells", "format": "cell-based, human"}, "CD40L on CD4+ T cells": {"system": "CD40L on CD4+ T cells", "format": "cell-based, human"}}, "note": "Values joined by “and” are separate entries in the source; they are usually repeats but may differ in a detail not shown here. Equal values may be shown once. “Also recorded” adds a separate entry of the source. Bridge positions count the residues as written; N and C are the ends. Square brackets hold non-standard residues; d marks the D form. Ends that are not written are not given here. Peptide text beside a SMILES is read from it. 1Nal = N[C@@H](Cc1cccc2ccccc12)C(=O)O"}
{"molecule": "CC[C@H](C)[C@@H]1NC(=O)[C@H](CCCCN)NC(=O)[C@@H](NC(=O)[C@H](CCCCN)NC(=O)[C@@H](NC(=O)[C@H](CC(N)=O)NC(=O)[C@@H](NC(=O)[C@@H](NC(=O)[C@@H](NC(=O)CN)C(C)C)[C@@H](C)CC)[C@@H](C)CC)C(C)C)CSSC[C@@H]2NC(=O)[C@H](CCCCN)NC(=O)CNC(=O)[C@H](Cc3ccccc3)NC(=O)[C@H](CCCNC(=N)N)NC(=O)[C@H](CCSC)NC(=O)CNC(=O)[C@H](C)NC(=O)[C@H](Cc3cccc4ccccc34)NC(=O)[C@H](CCCCN)NC(=O)[C@@H]3CSSC[C@@H](C(=O)N[C@H](C(=O)N4CCC[C@H]4C(=O)N[C@@H](CCCCN)C(=O)O)[C@@H](C)O)NC(=O)[C@H](Cc4c[nH]cn4)NC(=O)[C@H](CSSC[C@H](NC(=O)[C@H](CCC(N)=O)NC(=O)[C@H](CCCNC(=N)N)NC(=O)[C@H](CO)NC1=O)C(=O)N[C@@H](CC(C)C)C(=O)N[C@@H](CCC(=O)O)C(=O)N1CCC[C@H]1C(=O)N3)NC(=O)[C@H](CCCCN)NC(=O)CNC(=O)[C@H](CC(N)=O)NC(=O)[C@H](CCSC)NC2=O", "note": "[K20Nal] (H-GVIINVKCKISRQCLEPCK[1Nal]AGMRFGKCMNGKCHCTPK-OH; disulfide 8-28, 14-33, 18-35)", "values": [{"measurement": "IC50", "setting": "[1]; read-out: Analogue Activity (IC50, pM) WB/IFNg", "value": 12, "unit": "pM"}]}
{"molecule": "CC[C@H](C)[C@@H]1NC(=O)[C@H](CCCCN)NC(=O)[C@@H](NC(=O)[C@H](CCCCN)NC(=O)[C@@H](NC(=O)[C@H](CC(N)=O)NC(=O)[C@@H](NC(=O)[C@@H](NC(=O)[C@@H](NC(=O)CN)C(C)C)[C@@H](C)CC)[C@@H](C)CC)C(C)C)CSSC[C@@H]2NC(=O)[C@H](CCCCN)NC(=O)CNC(=O)[C@H](Cc3ccccc3)NC(=O)[C@H](CCCNC(=N)N)NC(=O)[C@H](CCSC)NC(=O)CNC(=O)[C@H](C)NC(=O)[C@H](CCCCN)NC(=O)[C@H](CCCCN)NC(=O)[C@@H]3CSSC[C@@H](C(=O)N[C@H](C(=O)N4CCC[C@H]4C(=O)N[C@@H](CCCCN)C(=O)O)[C@@H](C)O)NC(=O)[C@H](Cc4c[nH]cn4)NC(=O)[C@H](CSSC[C@H](NC(=O)[C@H](CCC(N)=O)NC(=O)[C@H](CCCNC(=N)N)NC(=O)[C@H](CO)NC1=O)C(=O)N[C@@H](CC(C)C)C(=O)N[C@@H](CCC(=O)O)C(=O)N1CCC[C@H]1C(=O)N3)NC(=O)[C@H](CCCCN)NC(=O)CNC(=O)[C@H](CC(N)=O)NC(=O)[C@H](C)NC2=O", "note": "[OSK1[Ala-29]] (H-GVIINVKCKISRQCLEPCKKAGMRFGKCANGKCHCTPK-OH; disulfide 8-28, 14-33, 18-35)", "values": [{"measurement": "potency in blocking the cytokine response relative to cyclosporin A (in words)", "setting": "[2]", "value": "several orders of magnitude more potent"}, {"measurement": "inhibition of the Kv1.3 current (in words)", "setting": "human Kv1.3 [3]", "value": "potent inhibition of the Kv1.3 current"}]}
{"molecule": "Fc-L10-OSK1[K7S,E16K,K20D]: OSK1-peptibody with triple amino acid substitutions at positions 7, 16 and 20", "values": [{"measurement": "fold less potent than the synthetic OSK1 toxin peptide", "setting": "human Kv1.3 [4]", "value": "approximately 21 fold"}]}
{"molecule": "Fc-L10-OSK1[K7S]", "values": [{"measurement": "fold less potent than the synthetic OSK1 toxin peptide", "setting": "human Kv1.3 [4]", "value": "approximately 10 fold"}]}
{"molecule": "Fc-L10-ShK[2-35]: human IgG1 Fc fused via L10 linker to ShK[2-35]; peptibody", "values": [{"measurement": "block of thapsigargin-induced upregulation of the IL-2R on T cells (in words)", "setting": "IL-2R on CD4+ T cells", "value": "blocked"}, {"measurement": "block of thapsigargin-induced IFN-g production in human whole blood (in words)", "setting": "[1]", "value": "suppressed; also recorded: blocked"}, {"measurement": "block of thapsigargin-induced IL-2 production in human whole blood (in words)", "setting": "[2]", "value": "suppressed; also recorded: potently blocked IL-2 secretion"}, {"measurement": "block of thapsigargin-induced upregulation of CD40L on T cells (in words)", "setting": "CD40L on CD4+ T cells", "value": "blocked"}]}
{"molecule": "PEG-Fc-L10-OSK1", "values": [{"measurement": "IC50", "setting": "human Kv1.3 [4]", "value": "0.256 nM and 0.332 nM"}]}
{"molecule": "PEG-Fc-L10-SHK(2-35)", "values": [{"measurement": "IC50", "setting": "human Kv1.3 [4]", "value": "0.175 nM and 0.158 nM"}]}
{"molecule": "SEQ ID No: 4989: OSK1 analog without beta strand 1 (labeled des 1-7), Table 42 (CKISRQCLKPCKDAGMRFGKCMNGKCHC-NH2; ends and bridges not checked)", "values": [{"measurement": "blockade of the whole blood cytokine response / inflammation (in words)", "setting": "[2]", "value": "still retain activity in blocking inflammation"}]}
{"molecule": "dendrotoxin-K [DTX-K, reference compound]", "values": [{"measurement": "block of thapsigargin-induced upregulation of the IL-2R on T cells (in words)", "setting": "IL-2R on CD4+ T cells", "value": "no significant activity"}, {"measurement": "block of thapsigargin-induced upregulation of CD40L on T cells (in words)", "setting": "CD40L on CD4+ T cells", "value": "no significant activity"}]}
{"molecule": "iberiotoxin (QFTDVDCSVSKECWSVCKDLFGVDRGKCMGKKCRCYQ; Definition of Artificial Sequence: Synthetic peptide) [IbTx, reference compound]", "values": [{"measurement": "block of thapsigargin-induced upregulation of the IL-2R on T cells (in words)", "setting": "IL-2R on CD4+ T cells", "value": "no significant activity"}, {"measurement": "block of thapsigargin-induced IFN-g production in human whole blood (in words)", "setting": "[1]", "value": "no significant activity"}, {"measurement": "block of thapsigargin-induced IL-2 production in human whole blood (in words)", "setting": "[2]", "value": "no significant activity"}, {"measurement": "block of thapsigargin-induced upregulation of CD40L on T cells (in words)", "setting": "CD40L on CD4+ T cells", "value": "no significant activity"}]}
{"molecule": "B1", "values": [{"measurement": "blockade of the whole blood cytokine response / inflammation (in words)", "setting": "[2]", "value": "active in blocking inflammation; also recorded: modest blockade of the whole blood cytokine response"}]}
{"molecule": "B2", "values": [{"measurement": "blockade of the whole blood cytokine response / inflammation (in words)", "setting": "[2]", "value": "IC50 values in the pM range"}]}
{"molecule": "B3", "values": [{"measurement": "blockade of the whole blood cytokine response / inflammation (in words)", "setting": "[2]", "value": "IC50 values in the pM range"}]}
{"molecule": "B4", "values": [{"measurement": "blockade of the whole blood cytokine response / inflammation (in words)", "setting": "[2]", "value": "IC50 values in the pM range"}]}
